Data as given in BindingDB's records for doi:10.1074/jbc.M406801200 (The Scripps Research Institute, 2004).
pIC50: −log10 of the molar value.

Biological target: Bifunctional purine biosynthesis protein ATIC (Homo sapiens, UniProt P31939)
Assay: AICAR Tfase Inhibition Assay
Settings: pH 7.5; 22 °C
Method: The human ATIC enzyme was used for the inhibition assay. The assay buffer was flushed with nitrogen to minimize oxidization of cofactor 10-f-THF. The reaction was initiated by adding the substrate AICAR to reaction mixtures containing ATIC, test compounds, and different concentrations of cofactor. […] The THF was generated in the transfer reaction of the formyl group from cofactor to AICAR to produce 5-formyl-AICAR. IC50 values were measured from dose-response curves.

Bifunctional purine biosynthesis protein ATIC, sequence (P31939 whole entry): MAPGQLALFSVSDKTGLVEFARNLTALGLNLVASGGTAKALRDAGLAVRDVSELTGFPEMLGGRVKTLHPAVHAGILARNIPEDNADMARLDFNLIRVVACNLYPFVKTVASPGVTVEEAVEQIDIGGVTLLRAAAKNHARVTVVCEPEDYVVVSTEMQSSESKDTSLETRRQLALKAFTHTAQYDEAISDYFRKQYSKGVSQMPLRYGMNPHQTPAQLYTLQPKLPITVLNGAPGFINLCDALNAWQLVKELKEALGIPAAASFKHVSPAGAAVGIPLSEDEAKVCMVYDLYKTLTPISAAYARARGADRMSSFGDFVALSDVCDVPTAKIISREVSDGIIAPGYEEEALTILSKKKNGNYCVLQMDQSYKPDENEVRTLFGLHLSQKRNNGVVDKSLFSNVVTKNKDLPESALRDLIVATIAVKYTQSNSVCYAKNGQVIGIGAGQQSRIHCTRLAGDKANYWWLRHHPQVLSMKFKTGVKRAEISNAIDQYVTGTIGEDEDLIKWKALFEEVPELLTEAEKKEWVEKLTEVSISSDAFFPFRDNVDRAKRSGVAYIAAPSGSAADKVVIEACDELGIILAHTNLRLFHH

pIC50	Compound
4.94	Cc1cc(N=Nc2c(C)[nH]n(-c3ccc(S(=O)(=O)O)cc3)c2=O)ccc1S(=O)(=O)Nc1ccccc1
4.38	Cc1[nH]n(-c2ccc(S(=O)(=O)O)cc2)c(=O)c1N=Nc1cc(Cl)cc(S(=O)(=O)O)c1C(=O)O [4-chloro-2-[(E)-2-[5-hydroxy-3-methyl-1-(4-sulfophenyl)-1H-pyrazol-4-yl]diazen-1-yl]-6-sulfobenzoic acid]
5.48	Cc1ccc(OS(=O)(=O)c2ccc(N=Nc3c(C)[nH]n(-c4ccc(Cl)cc4S(=O)(=O)O)c3=O)cc2)cc1 [5-chloro-2-{5-hydroxy-3-methyl-4-[(E)-2-[4-(4-methylphenoxysulfonyl)phenyl]diazen-1-yl]-1H-pyrazol-1-yl}benzene-1-sulfonic acid]
4.70	Cc1[nH]n(-c2cc(Cl)c(S(=O)(=O)O)cc2Cl)c(=O)c1N=Nc1ccc(S(=O)(=O)O)cc1 [yellow 2G]
5.85	O=S(=O)(O)Oc1c(-c2sc3c(ccc4cccc(Cl)c43)c2OS(=O)(=O)O)[nH]c2ccc(Br)cc12 [{4-[5-bromo-3-(sulfooxy)-1H-indol-2-yl]-13-chloro-3-thiatricyclo[7.4.0.0^{2,6}]trideca-1(9),2(6),4,7,10,12-hexaen-5-yl}oxidanesulfonic acid]
